Measurements published in patent US7109209B2, “Pyrazolopyridines, process for their preparation and use as therapeutic compounds” (SmithKline Beecham Corporation, priority 2001, dated 2006).
pIC50: −log10 of the molar value.

System: HSV-1
Experiment: HSV-1 infection of Vero 76 cells, viral DNA detected by hybridization capture (chemiluminescence)
Type: cell-based
Details: Human alphaherpesvirus 1; HSV-1 in Vero 76 cells, MOI=0.001, 40-48 hours at 37° C.
Description: Vero 76 cells were maintained in MEM with Earle's salts, L-glutamine, 8% FBS (Hyclone, A-1111-L) and 100 units/mL Penicillin-100 μg/mL Streptomycin. For assay conditions, FBS was reduced to 2%. Cells are seeded into 96-well tissue culture plates at a density of 5×10^4 cells/well after being incubated for 45 min at 37° C. in the presence of HSV-1 or HSV-2 (MOI=0.001). Test compounds are added to the wells and the plates are incubated at 37° C. for 40-48 hours. Cell lysates are prepared as follows: media was removed and replaced with 150 VL/well 0.2 N NaOH with 1% Igepal CA 630 or NP-40. Plates were incubated up to 14 days at room temperature in a humidified chamber to prevent evaporation.
For the detection probe, a gel-purified, digoxigenin-labeled, 710-bp PCR fragment of the HSV UL-15 sequence was utilized. […]
Twenty-seven (27) μL of cell lysate was combined with 45 μL of hybridization solution (final concentration: 3M GuSCN, 50 mM EDTA, 100 μg/ml salmon sperm DNA, 5× Denhardt's solution, 0.25×APE, and 5 ng of the digoxigenin-labeled detection probe). […] The plates were incubated at room temperature for 30 minutes and chemiluminescence was measured in a Wallac Victor reader.

SMILES	pIC50
CCSc1cc(Cl)cc2c(-c3ccnc(NC4CCCC4)n3)c(-c3ccc(F)cc3)nn12 [Example 32, N-{4-[5-Chloro-7-(ethylsulfanyl)-2-(4-fluorophenyl)pyrazolo[1,5-α]pyridin-3-yl]-2-pyrimidinyl}-N-cyclopentylamine]	5.70
CSc1cc(N2CCOCC2)cc2c(-c3ccnc(NC4CCCC4)n3)c(-c3ccc(F)cc3)nn12 [Example 44, N-Cyclopentyl-4-[2-(4-fluorophenyl)-7-(methylthio)-5-morpholin-4-ylpyrazolo[1,5-α]pyridin-3-yl]pyrimidin-2-amine]	6.30
